In ChEMBL document CHEMBL5344420, “Flexibility in the bridge of chalcone derivatives is important for the inhibition of cellular growth” (Bioorg Med Chem Lett, 2023):

Test system: A549
Test: Antiproliferative activity against human A549 cells assessed as cell growth inhibition measured after 48 hrs by CellTiter Aqueous One Solution MTS assay
Type: functional, cell-based
Conditions: A549, 48 h

IC50 [µM] | Compound
> 30 | O=C1/C(=C/c2ccc(O)cc2)CCc2ccccc21
> 30 | COc1ccc(/C=C2\CCc3ccccc3C2=O)cc1
> 30 | Cc1ccc(/C=C2\Cc3ccccc3C2=O)cc1
> 30 | O=C1/C(=C/c2ccccc2)Cc2ccccc21
> 30 | O=C1/C(=C/c2ccccc2)CCc2ccccc21
> 30 | O=C1/C(=C/c2ccc(F)cc2)CCc2ccccc21
> 30 | Cc1ccc(/C=C2\CCc3ccccc3C2=O)cc1
> 30 | O=C1/C(=C/c2ccc(F)cc2)Cc2ccccc21
> 30 | COc1ccc(/C=C2\Cc3ccccc3C2=O)cc1
16.8 | Cc1ccc(/C=C/C(=O)c2ccccc2)cc1
> 30 | O=C1/C(=C/c2ccc(OC(F)(F)F)cc2)Cc2ccccc21
5.35 | O=C(/C=C/c1ccc(OC(F)(F)F)cc1)c1ccccc1
> 30 | O=C1/C(=C/c2ccc(O)cc2)Cc2ccccc21
> 30 | O=C1/C(=C/c2ccc(OC(F)(F)F)cc2)CCc2ccccc21
26.6 | O=C(/C=C/c1ccc(O)cc1)c1ccccc1 [4-HYDROXYCHALCONE]
5.2 | COc1ccc(/C=C/C(=O)c2ccccc2)cc1 [4-METHOXY CHALCONE]
12.2 | O=C(/C=C/c1ccccc1)c1ccccc1 [CHALCONE]
